From patent US20260137697A1, “THIAZOLO[5,4-D]PYRIMIDINE COMPOUNDS, COMPOSITIONS COMPRISING THEM AND USES THEREOF” (University de Montreal, priority 2022, published 2026)

Columns and labels:
BRAF = biological target: T1, BRAF (Homo sapiens, UniProt P15056); assay: BRAF kinase activity assay (ADP-Glo); assay type: biochemical; conditions: 10 μM ATP, kinase-dead MEK1 substrate
T1 construct: GST; purchased Millipore Sigma B4062-10UG
Procedure: (§1) Compound preparation: solid samples of each substance in 1dram vials were suspended in DMSO (Fisher Scientific) at a stock concentration of 20 mM. Stocks were kept at −20° C. and protected from light. If solubility of the compound at 20 mM appeared to be an issue, the initial concentration of the DMSO stock was changed to 10 mM or 5 mM.
(§2) In vitro enzymatic reactions were used for evaluating compounds intrinsic activity against BRAF, CRAF and ARAF. For BRAF and CRAF, 0.375 nM of purified GST-tagged kinases (cat. No. B4062-10UG and cat. No. R1656-10UG respectively from Millipore Sigma) were incubated with 75 nM of kinase-dead MEK1 substrate (cat. No. 40075; BPS Bioscience) in the presence of 10 μM of Ultrapure ATP (cat. No. V9102; Promega; part V915A) with and without the test compound in a buffer containing 50 mM HEPES pH 7.5, 10 mM MgCl2, 1 mM EDTA, 0.01% Brij-35 and 2 mM DTT. Separate reactions were performed with the MEK1 substrate and ATP as a blank control. ARAF kinase reactions were rigorously the same with the exception that kinase concentration was raised to 3.75 nM (cat. No. 1768-0000-1; Reaction Biology).
(§3) For compound treatment, 5 μL/well of test substance solution are placed in a 384-well proxyplate (Perkin Elmer) and mixed with 2× concentrated kinase reactions. The dilution series is selected so that nine concentrations cover a range from 100 nM to 0.01 nM. […] The final concentration of DMSO in the assay is set at 0.05%.
(§4) BRAF and CRAF kinase reactions were carried out for a total of 2 hours at 30° C. and then stopped by 1/2 dilution in ADP-Glo Reagent (cat. No. V9102; Promega; part V912C). Reactions were then incubated for 1 h at room temperature before addition of one volume of Kinase Detection Reagent (cat. No. V9102; Promega; part V917A). Plates were then equilibrated at room temperature for 30 minutes before detection of luminescence on a Synergy Neo2 plate reader (Biotek). The effect of each compound dilution on BRAF and CRAF kinase activity was expressed as % inhibition and calculated as follows. First, the internal 100% inhibition control (average of luminescence in kinase reactions comprising kinase dead MEK1 substrate alone) was subtracted from each data point. The average of DMSO (vehicle) controls (set as 0% inhibition) was established and used to calculate % inhibition:
(§5) IC50 values were obtained by plotting the kinase inhibition values and fitting the dose-activity curves using a log(agonist) versus response—variable slope (four parameters) function using either GraphPadPrism (V7.0) or Dotmatics Screening Ultra platform. Standards included in the ARAF kinase assay were Belvarafenib (MedChem Express cat. No. HY-109080; CAS No. 1446113-23-0), LXH254 (MedChem Express cat. No. HY-112089; CAS No. 1800398-38-2) and BGB283 (cat. No. HY-18957; CAS No. 1446090-79-4).

CRAF = biological target: T2, CRAF (Homo sapiens, UniProt P04049); assay: CRAF kinase activity assay (ADP-Glo); assay type: biochemical; conditions: 10 μM ATP, kinase-dead MEK1 substrate
T2 construct: fused on or other part: GST tag (N-terminal according to the vendor's product)
T2 sequence (P04049 whole entry Y340E/Y341E, form open, the tested form may be a part): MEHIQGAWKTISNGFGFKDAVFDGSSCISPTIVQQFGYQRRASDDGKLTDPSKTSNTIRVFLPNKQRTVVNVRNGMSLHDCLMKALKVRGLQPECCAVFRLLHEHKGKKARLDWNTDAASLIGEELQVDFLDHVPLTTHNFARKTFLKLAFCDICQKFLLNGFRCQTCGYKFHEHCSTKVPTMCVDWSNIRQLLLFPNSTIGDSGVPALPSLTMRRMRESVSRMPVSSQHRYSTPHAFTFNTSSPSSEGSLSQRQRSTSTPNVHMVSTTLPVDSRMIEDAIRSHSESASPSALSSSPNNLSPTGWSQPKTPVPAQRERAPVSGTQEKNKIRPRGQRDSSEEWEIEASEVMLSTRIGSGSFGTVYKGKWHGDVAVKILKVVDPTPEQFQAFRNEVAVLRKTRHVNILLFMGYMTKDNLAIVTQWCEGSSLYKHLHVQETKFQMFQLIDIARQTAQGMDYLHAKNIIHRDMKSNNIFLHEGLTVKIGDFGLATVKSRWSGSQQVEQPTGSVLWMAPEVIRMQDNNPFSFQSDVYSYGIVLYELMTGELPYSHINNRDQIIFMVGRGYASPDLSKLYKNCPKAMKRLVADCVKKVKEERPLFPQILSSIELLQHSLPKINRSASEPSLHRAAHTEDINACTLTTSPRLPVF
Procedure: as §1, §2, §3, §4, §5

pERK, HCT116 cells = assay: Phospho-ERK inhibition, AlphaLISA p-ERK 1/2, HCT-116; assay type: cell-based, human; conditions: for IC50: HCT116 cells (KRAS G13D), 1 h treatment; for HCT116 pERK (Ymin %): lowest % inhibition value of the pERK IC50 curve, above −20% = no paradoxical induction
Procedure: All cancer cell lines (A375, A101D, A2058, RKO, HT29 SK-MEL 30, IPC298, HepG2, HCT-116, Lovo, SW620, SW480, NCI-H358, NCI-H2122, Calu-6, NCIH2087, NCIH1755, NCIH1666 and Mewo) were obtained from ATCC and cultured in RPM1-1640 medium (Gibco) supplemented with 5% heat inactivated fetal bovine serum (FBS, Wisent) at 37° C. under 5% CO2. Cells were maintained in T175 flasks (Greiner). They were passaged by removing the culture medium, washing once in 10 mL of room temperature Phosphate Buffered Saline (PBS; Wisent) and incubating at 37° C. with 2 mL of 0.05% Trypsin (Thermo-Fisher). Trypsin was then inactivated by adding complete growth medium and the cells were then replated in a T175 culture dish at the appropriate dilution. All cell lines were routinely tested for mycoplasma contamination. Tissue type and mutational status of each cell line can be found in Table B.
(c) Measurement of Phospho-ERK Inhibition in Cultivated Human Cancer Cell Lines by the AlphaLISA® SureFire® Ultra™ p-ERK 1/2 (Thr2O2/Tyr204)
AlphaLISA® SureFire® Ultra™ p-ERK 1/2 (Thr202/Tyr204) analysis was conducted on cells plated in 100 μL of complete RPMI-1640 growth medium in 96-well flat-bottomed transparent dishes (Costar) at a density indicated in Table C. Cells were maintained overnight at 37° C. under 5% CO2 before treatment with compounds' dilution series for one hour. The cell density in cells/cm^2 corresponds to cell number divided by the area of one well of a 96-well plate (0.143 cm^2).
In a dilution series 100 μL/well of test substance dilution prepared in complete RPMI-1640 growth media was added to the cells. The dilution series is selected so that ten concentrations cover a range from 10 μM to 0.33 nM. If necessary, the initial concentration of 10 μM is increased to 100 μM or lowered to 1 μM (as in the case of A375 and H1666 cells, which are generally more sensitive to the compounds) and further dilution is carried out accordingly. The final concentration of DMSO in the assay is set at 0.5%.
After treatment, media was removed, and cells were lysed in 50 μL of 1× AlphaScreen Ultra Lysis Buffer (Perkin Elmer). The AlphaLISA® SureFire® Ultra™ p-ERK 1/2 (Thr202/Tyr204) (PerkinElmer) reactions were performed with 5 μL of cell lysate according to the manufacturer's specifications in 384-well proxyplates (Perkin Elmer) followed by overnight incubation of the reactions at room temperature in a humidified chamber. After completion of the reactions, the signals were recorded on an EnVision plate reader (Perkin Elmer) using built in AlphaLISA® settings.
The effect of each compound dilution on the pERK signal was expressed in % inhibition and calculated as follows. An internal 100% inhibition control (1 μM trametinib, cat. No. HY-10999; MedChem Express; CAS No. 871700-17-3) was included in each plate and used as a measure of pERK background. First, the value obtained for trametinib was subtracted from each data point. The average of DMSO (vehicle) controls (set as 0% inhibition) was established and used to calculate % inhibition:
The ability of each compound to inhibit pERK signal was expressed as an IC50 value obtained by plotting the inhibition values for each data point of a dilution series and fitting the obtained curves using a log(agonist) versus response—variable slope (four parameters) function using GraphPadPrism (V7.0) or Dotmatics Screening Ultra platform.
When present, paradoxical pERK induction is inferred from the negative % inhibition values observed in the pERK IC50 curves of a compound.

T1 sequence (P15056 whole entry): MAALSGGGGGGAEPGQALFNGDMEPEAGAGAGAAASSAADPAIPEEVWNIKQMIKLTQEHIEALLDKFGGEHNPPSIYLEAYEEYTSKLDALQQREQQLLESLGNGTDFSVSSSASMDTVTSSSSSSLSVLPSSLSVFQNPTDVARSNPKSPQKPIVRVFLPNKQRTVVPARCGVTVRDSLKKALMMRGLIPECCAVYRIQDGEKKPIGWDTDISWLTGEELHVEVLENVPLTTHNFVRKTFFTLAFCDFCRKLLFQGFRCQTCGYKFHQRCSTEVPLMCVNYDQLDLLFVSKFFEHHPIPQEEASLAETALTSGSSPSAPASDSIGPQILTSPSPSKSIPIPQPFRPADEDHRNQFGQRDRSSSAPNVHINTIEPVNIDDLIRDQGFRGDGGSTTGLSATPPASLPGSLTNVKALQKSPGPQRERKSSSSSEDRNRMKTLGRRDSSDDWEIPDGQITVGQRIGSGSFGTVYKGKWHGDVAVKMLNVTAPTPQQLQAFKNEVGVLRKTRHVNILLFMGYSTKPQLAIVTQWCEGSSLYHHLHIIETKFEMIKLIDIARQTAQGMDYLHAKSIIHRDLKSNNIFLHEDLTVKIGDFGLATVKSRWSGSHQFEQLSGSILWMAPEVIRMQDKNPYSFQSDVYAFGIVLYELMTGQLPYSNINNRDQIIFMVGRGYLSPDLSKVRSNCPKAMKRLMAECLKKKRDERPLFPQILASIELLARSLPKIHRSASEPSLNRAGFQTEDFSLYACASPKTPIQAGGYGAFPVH

Row | SMILES | IC50 (BRAF; Table 3) | IC50 (CRAF; Table 3) | IC50 (pERK, HCT116 cells; Table 3) | HCT116 pERK (Ymin %) (pERK, HCT116 cells; Table 3) | IC50 (pERK, HCT116 cells; Homo sapiens, HCT-116, Table 3) | IC50 (BRAF; Table 4) | IC50 (CRAF; Table 4) | IC50 (pERK, HCT116 cells; Homo sapiens, HCT-116, Table 4)
1 | O=S(=O)(Nc1ccc(F)c(Nc2ncnc3sc(-n4cnc5c(F)cccc54)nc23)c1F)c1cccc(Cl)c1Cl [Example 18] | < 0.001 µM | < 0.01 µM | < 0.5 µM | 0% | – | – | – | –
2 | Cc1ncn(-c2nc3c(Nc4c(F)ccc(NS(=O)(=O)c5cccc(F)c5C)c4F)ncnc3s2)c1C [Example 1] | 0.001 to 0.01 µM | < 0.01 µM | < 0.5 µM | −11% | – | – | – | –
3 | O=C(c1cn(-c2nc3c(Nc4c(F)ccc(NS(=O)(=O)c5cccc(Cl)c5Cl)c4F)ncnc3s2)c2ccccc12)N1CCC(O)C1 (centres unmarked) [Example 53] | < 0.001 µM | < 0.01 µM | 0.5 to 1 µM | −9% | – | – | – | –
4 | Cc1c(F)cccc1S(=O)(=O)Nc1ccc(F)c(Nc2ncnc3sc(-n4nc(C(=O)N(C)CCc5ccccn5)c5ccccc54)nc23)c1F [Example 25] | > 0.01 µM | > 0.05 µM | 1 to 10 µM | 2% | – | – | – | –
5 | O=C(c1cn(-c2nc3c(Nc4c(F)ccc(NS(=O)(=O)c5cccc(Cl)c5Cl)c4F)ncnc3s2)c2ccc(Cl)cc12)N1C2CCC1COC2 [Example 81] | 0.001 to 0.01 µM | 0.01 to 0.05 µM | 0.5 to 1 µM | −8% | – | – | – | –
6 | Nc1ncccc1-c1cccc2c1ncn2-c1nc2c(Nc3c(F)ccc(NS(=O)(=O)c4cccc(Cl)c4Cl)c3F)ncnc2s1 [Example 134] | 0.001 to 0.01 µM | 0.01 to 0.05 µM | < 0.5 µM | −5% | – | – | – | –
7 | O=S(=O)(Nc1ccc(F)c(Nc2ncnc3sc(-n4cnc5c(N6CCC(O)(C(F)(F)F)CC6)cccc54)nc23)c1F)c1cccc(Cl)c1Cl [Example 137] | > 0.01 µM | > 0.05 µM | < 0.5 µM | −14% | – | – | – | –
8 | Cc1c(F)cccc1S(=O)(=O)Nc1ccc(F)c(Nc2ncnc3sc(-n4nc(C(=O)N5C6CCC5CN(C)C6)c5ccccc54)nc23)c1F [Example 42] | > 0.01 µM | 0.01 to 0.05 µM | 0.5 to 1 µM | 2% | – | – | – | –
9 | O=S(=O)(Nc1ccc(F)c(Nc2ncnc3sc(-n4cnc5cc(Cl)c(Cl)cc54)nc23)c1F)c1cccc(Cl)c1Cl [Example 47] | 0.001 to 0.01 µM | 0.01 to 0.05 µM | – | – | 1 to 10 µM | – | – | –
10 | O=S(=O)(Nc1cc(F)c(F)c(Nc2ncnc3sc(-n4cnc5ccccc54)nc23)c1F)c1cccc(Cl)c1Cl [Example 159, N-[3-[[2-(benzimidazol-1-yl)thiazolo[5,4-d]pyrimidin-7-yl]amino]-2,4,5-trifluoro-phenyl]-2,3-dichloro-benzenesulfonamide] | – | – | – | – | – | 0.001 to 0.01 µM | < 0.01 µM | < 0.5 µM
